# From patent publication US11541029B2, “High penetration compositions and their applications” (Techfields Pharma Co., Ltd., priority 2008, dated 2023)
# Legend:
# [1] = test system: Smyth chickens (animal models of vitiligo); test: Anti-vitiligo activity in Smyth chickens; type: in vivo; conditions: 50 mg/kg (5% in pure water) on discoloured lesions once per day for 10 weeks
# Procedure: 20 Smyth chickens (animal models of vitiligo) were allocated to 2 groups. Group A (n=10) chickens received 1 ml of pure water on discoloured lesions once per day for 10 weeks. Group B (n=10) Smyth chicken received 50 mg/kg of diethylaminoethyl acetylsalicylate citric acid (5% in pure water) on discoloured lesions once per day for 10 weeks. In the untreated control group A, the lesions were worse and feather loss continued. In the diethylaminoethyl acetylsalicylate citric acid treated group B, the discoloured lesions disappeared and feathers regrew with 3-6 weeks.
# [2] = test system: spontaneously hypertensive rats (SLAC/SHR); test: Anti-hypertensive activity in spontaneously hypertensive rats; type: in vivo; conditions: 50 mg/kg (10% in water) on back skin once per day
# Procedure: 20 spontaneously hypertensive rats (SLAC/SHR, 19 weeks old, 300-350 g) were divided into 2 groups randomly. In group A, pure water (0.5 ml) was applied to the rats' back skin (˜5 cm^2, fur was cut off) once per day for 6 weeks. In groups B, 50 mg/kg of diethylaminoethyl acetylsalicylate citric acid salt (10% in water) was applied to the rats' back skin (˜5 cm^2, fur was cut off) once per day.
# [3] = test system: mice (aging); test: Lifespan of mice; type: in vivo
# Procedure: 60 mice (10 weeks old, 30.3±3.5 g) were divided into groups A and B. In group A (n=30), 0.05 ml of distilled water (˜2 cm^2) was applied to the back of mice once per day. In group B (n=30), […] of diethylaminoethyl acetylsalicylate citric acid (the HPC of aspirin) in 0.05 ml of water (10%) was applied to the back of mice (˜2 cm^2) once per day.
# [4] = Distribution in milk of sheep after transdermal HPC of ibuprofen; type: in vivo; conditions: female, topical, 2 hr after 0.3 mmol/kg diethylaminoethyl 2-(ρ-isobutylphenyl)propionate.citric acid salt on back, read-out: amount found in the milk
# From the text: (§1) A HPC changed quickly to its parent drug in vivo, so the concentration was the concentration of its parent drug or related compound.
# [5] = Distribution in organs of rabbits after transdermal HPC of ibuprofen; type: in vivo; conditions: for distribution in brain / distribution in cartilage pads / distribution in heart / distribution in prostate gland / distribution in testis: 2 hr after 0.3 mol/kg HPC of ibuprofen (10% aqueous) on shaved back; for distribution in Myelin: 2 hr after HPC of ibuprofen (10% aqueous) on shaved back
# From the text: as §1
# [6] = Amount of ibuprofen in Beagle dogs synovial fluid, 0.3 mmol/kg; type: in vivo
# [7] = in vivo
# Procedure: The plasma or brain tissue (the whole brain was washed with pH 7.4 buffer for 3 times) was homogenized immediately in 3-5 ml of methanol, using a tissue tearor at 30,000 rpm (about 2 min.).
# [8] = test system: rats given sterilized E. coli suspension as a pyrogen; test: Antipyretic activity of ibuprofen and its HPC (Study A); type: in vivo
# [9] = Fluorescence microscopy of HPC crossing rat skin, brain and other organs; type: in vivo; conditions: 15 minutes after 30 mg in 0.5 ml ethanol on back of rats
# Procedure: For fluorescence microscopy studies, 30 mg of 5-(dimethylamino)naphthalene-1-sulfonic acid or its HPC, N-2-diethylaminoethyl 5-dimethylamino-1-naphthalenesulfonamide.HCl salt was dissolved in 0.5 ml of 75% ethanol and applied to the shaved back of rats (3×3 cm). 15 minutes or 3 hours later, the rat was killed and organs were taken out and frozen. The frozen tissues (brain, liver, and muscle) were sliced and stained with Haematoxylin and eosin (H&E) staining. Results were shown picture 1-9 in FIG. 9.
# [10] = Solubility in water; type: physicochemical
# Procedure: 30 g (0.1 mol) of sodium 9-cis-retinoate was dissolved in 100 ml of acetonitrile. 26.1 g (0.1 mol) of 2-Bromo-N,N-diethylethylamine.HBr was added into the reaction mixture. The mixture was stirred for overnight at RT. The solvents were evaporated off. 200 ml of ethanol was added into the residue. The solid was removed by filtration. The solution was evaporated to dryness. 100 ml of ethyl acetate was added into the reaction mixture. Hexane (100 ml) was added. The solid product was collected by filtration. After drying, it yielded 36 g of the desired product (75%).
# [11] = Distribution in organs of rats after transdermal HPC of ibuprofen; conditions: 2 hr after 0.3 mmol/kg HPC of ibuprofen (10% aqueous) on shaved back
# From the text: as §1
# [12] = Amounts of ibuprofen in Beagle dogs cartilage tissue; type: in vivo; conditions: 18 hours after administration
# [13] = 20 mg/kg, transdermally, t = 0 min.
# [14] = 20 mg/kg, transdermally, t = 90 min.
# [15] = 20 mg/kg, transdermally, t = 180 min.
# [16] = 20 mg/kg, transdermally, t = 270 min.
# [17] = 50 mg/kg, transdermally, t = 0 min.
# [18] = 50 mg/kg, transdermally, t = 90 min.
# [19] = 50 mg/kg, transdermally, t = 180 min.
# [20] = 50 mg/kg, transdermally, t = 270 min.
# [21] = 100 mg/kg, orally, t = 270 min.
# [22] = 100 mg/kg, transdermally, t = 0 min.
# [23] = 100 mg/kg, transdermally, t = 90 min.
# [24] = 100 mg/kg, transdermally, t = 180 min.
# [25] = 100 mg/kg, transdermally, t = 270 min.
smiles,measurement,setting,value
CCN(CC)CCOC(=O)c1ccccc1OC(C)=O.O=C(O)CC(O)(CC(=O)O)C(=O)O [diethylaminoethyl acetylsalicylate citric acid salt],time until discoloured lesions disappeared and feathers regrew,[1],3-6 weeks
same,"Blood pressure (week 0), Systolic",[2],184.6 ± 15.1 mmHg
same,"Blood pressure (week 0), diastolic",[2],118.2 ± 13.1 mmHg
same,"Blood pressure (week 2 to week 6), Systolic",[2],115.4 ± 14.6 mmHg
same,"Blood pressure (week 2 to week 6), diastolic",[2],83.5 ± 12.1 mmHg
same,Lifespan,"[3]; 0.5 mg in 0.05 ml of water on back once per day, n=30",38.2 ± 4.6 month
same,increase of the lifespan of mice,"[3]; mouse, in vivo",27%
"CC(C)Cc1ccc(C(C)C(=O)O)cc1 (stereo not drawn) [ibuprofen, 2-(ρ-isobutylphenyl)propionic acid, reference compound]",concentration at 2 h,[4],30 ± 8 µM
same,distribution in brain,[5],5 ± 1 nmol/g
same,distribution in cartilage pads,[5],8 ± 2 nmol/g
same,distribution in heart,[5],10 ± 5 nmol/g
same,distribution in prostate gland,[5],18 ± 7 nmol/g
same,distribution in testis,[5],11 ± 4 nmol/g
same,distribution in Myelin,[5],25 ± 8 nmol/g
same,ibuprofen in synovial fluid,"[6]; intramuscularly, 1 hour",3.2 ± 0.3 nmol/g
same,ibuprofen in synovial fluid,"[6]; intramuscularly, 8 hours",0.3 ± 0.1 nmol/g
same,concentration at 1 h,"[7]; male, rat, in vivo",1430 ± 68 µM
same,concentration at 8 h,"[7]; male, rat, in vivo",313 ± 39 µM
same,body temperature,"[8]; 20 mg/kg, orally, t = 0 min.",37.5 ± 0.2
same,body temperature,"[8]; 20 mg/kg, orally, t = 90 min.",37.6 ± 0.3
same,body temperature,"[8]; 20 mg/kg, orally, t = 180 min.",37.5 ± 0.3
same,body temperature,"[8]; 20 mg/kg, orally, t = 270 min.",37.4 ± 0.3
same,body temperature,[8]; [13],37.5 ± 0.3
same,body temperature,[8]; [14],37.5 ± 0.5
same,body temperature,[8]; [15],37.8 ± 0.4
same,body temperature,[8]; [16],37.9 ± 0.3
same,body temperature,"[8]; 50 mg/kg, orally, t = 0 min.",37.5 ± 0.3
same,body temperature,"[8]; 50 mg/kg, orally, t = 90 min.",37.6 ± 0.3
same,body temperature,"[8]; 50 mg/kg, orally, t = 180 min.",37.2 ± 0.3
same,body temperature,"[8]; 50 mg/kg, orally, t = 270 min.",37.1 ± 0.3
same,body temperature,[8]; [17],37.6 ± 0.3
same,body temperature,[8]; [18],37.8 ± 0.3
same,body temperature,[8]; [19],37.9 ± 0.3
same,body temperature,[8]; [20],38.1 ± 0.3
same,body temperature,"[8]; 100 mg/kg, orally, t = 0 min.",37.5 ± 0.3
same,body temperature,"[8]; 100 mg/kg, orally, t = 90 min.",37.4 ± 0.4
same,body temperature,[8]; [21],36.7 ± 0.3
same,body temperature,[8]; [22],37.6 ± 0.4
same,body temperature,[8]; [23],37.9 ± 0.4
same,body temperature,[8]; [24],37.8 ± 0.3
same,body temperature,[8]; [25],37.8 ± 0.2
same,antipyretic activity,[8]; transdermal administration,did not show any antipyretic activity
CCN(CC)CCNS(=O)(=O)c1cccc2c(N(C)C)cccc12.Cl [N-2-diethylaminoethyl 5-dimethylamino-1-naphthalenesulfonamide.HCl salt],"fluorescence chemical entering brain, muscle, and liver",[9],"large amount of the fluorescence chemical had entered the brain, muscle, and liver"
"Br.CCN(CC)CCOC(=O)/C=C(C)/C=C/C=C(C)\C=C\C1=C(C)CCCC1(C)C [N,N-diethylaminoethyl 9-cis-retinoate.HBr]",solubility in water,[10],30 mg/mL
CCN(CC)CCOC(=O)C(C)c1ccc(CC(C)C)cc1.Cl (stereo not drawn) [diethylaminoethyl 2-(ρ-isobutylphenyl)propionate.HCl],distribution in brain,[11],0.1 ± 0.05 nmol/g
same,distribution in heart,[11],0.5 ± 0.2 nmol/g
same,distribution in kidney,[11],0.4 ± 0.2 nmol/g
same,distribution in liver,[11],0.2 ± 0.2 nmol/g
same,distribution in pancreas,[11],0.5 ± 0.3 nmol/g
same,distribution in stomach,[11],0.3 ± 0.1 nmol/g
same,distribution in brain,[5],0.4 ± 0.2 nmol/g
same,distribution in cartilage pads,[5],0.4 ± 0.2 nmol/g
same,distribution in heart,[5],0.3 ± 0.1 nmol/g
same,distribution in prostate gland,[5],0.5 ± 0.3 nmol/g
same,distribution in testis,[5],0.5 ± 0.3 nmol/g
same,distribution in Myelin,[5],0.60 ± 0.2 nmol/g
same,Amount of ibuprofen in cartilage tissue,[12]; intramuscularly,17.2 ± 6.1 nmol/g
same,Amount of ibuprofen in cartilage tissue,[12]; transdermally,22.5 ± 4.5 nmol/g
same,ibuprofen in synovial fluid,"[6]; intramuscularly, 1 hour",28.1 ± 8.1 nmol/g
same,ibuprofen in synovial fluid,"[6]; intramuscularly, 8 hours",22.1 ± 4.2 nmol/g
same,ibuprofen in synovial fluid,"[6]; intramuscularly, 18 hours",4.2 ± 1.1 nmol/g
same,ibuprofen in synovial fluid,"[6]; transdermally, 1 hour",11.6 ± 4.2 nmol/g
same,ibuprofen in synovial fluid,"[6]; transdermally, 8 hours",28.2 ± 4.7 nmol/g
same,ibuprofen in synovial fluid,"[6]; transdermally, 18 hours",11.2 ± 3.2 nmol/g
same,ibuprofen in Plasma (18 hr),[7]; intramuscularly,0.5 ± 0.2 nmol/mL
same,ibuprofen in Plasma (18 hr),[7]; transdermally,2.9 ± 2 nmol/mL
same,body temperature,"[8]; 20 mg/kg, orally, t = 0 min.",37.6 ± 0.3
same,body temperature,"[8]; 20 mg/kg, orally, t = 90 min.",37.1 ± 0.3
same,body temperature,"[8]; 20 mg/kg, orally, t = 180 min.",36.9 ± 0.3
same,body temperature,"[8]; 20 mg/kg, orally, t = 270 min.",36.8 ± 0.2
same,body temperature,[8]; [13],37.6 ± 0.2
same,body temperature,[8]; [14],36.7 ± 0.4
same,body temperature,[8]; [15],36.6 ± 0.5
same,body temperature,[8]; [16],36.5 ± 0.3
same,body temperature,"[8]; 50 mg/kg, orally, t = 0 min.",37.6 ± 0.3
same,body temperature,"[8]; 50 mg/kg, orally, t = 90 min.",36.6 ± 0.3
same,body temperature,"[8]; 50 mg/kg, orally, t = 180 min.",36.5 ± 0.3
same,body temperature,"[8]; 50 mg/kg, orally, t = 270 min.",36.4 ± 0.2
same,body temperature,[8]; [17],37.5 ± 0.4
same,body temperature,[8]; [18],36.5 ± 0.3
same,body temperature,[8]; [19],36.4 ± 0.3
same,body temperature,[8]; [20],36.5 ± 0.2
same,body temperature,"[8]; 100 mg/kg, orally, t = 0 min.",37.5 ± 0.4
same,body temperature,"[8]; 100 mg/kg, orally, t = 90 min.",36.5 ± 0.3
same,body temperature,"[8]; 100 mg/kg, orally, t = 180 min.",36.4 ± 0.3
same,body temperature,[8]; [21],36.4 ± 0.2
same,body temperature,[8]; [22],37.5 ± 0.3
same,body temperature,[8]; [23],36.5 ± 0.2
same,body temperature,[8]; [24],36.4 ± 0.3
same,body temperature,[8]; [25],36.5 ± 0.2
